{
  "source": "patent US20260144797A1",
  "about": "“METHODS OF REDUCING OR PREVENTING METASTASES” (FOGHORN THERAPEUTICS INC., priority 2022, published 2026)",
  "type_in_all_cases": "in vivo",
  "key": {"[1]": {"test_system": "uveal melanoma (UM) CDX models MP-41 and MP-46", "assay": "Differential gene expression by RNA-seq in UM CDX models (Example 1)", "conditions": "MP-41 and MP-46 CDX; 0.5-3 mpk QD or BID; 5 days; RNA-seq (FIG. 3)", "procedure": "Uveal melanoma can be classified into Class 1 or Class 2 tumors based on the DecisionDx®-UM gene expression profiling (GEP) test, a widely used prognostic test to predict individual risk of metastasis in patients with uveal melanoma. Class 1 and 2 tumors are associated with low and high risk of metastasis, respectively. Gene expression profiling (GEP) Class 2 (dark blue), GEP Class 1 (light blue), PRAME (green), and BAP1 (orange) expression were measured in three uveal melanoma (UM) CDX models: 92-1, MP-41, and MP-46 (FIG. 2). GEP class 1 and GEP class 2 are defined in FIG. 1.\nDifferential gene expression was measured by RNA-seq in two uveal melanoma (UM) CDX models: MP-41 and MP-46 (FIG. 3). UM CDX model MP-41 was divided into four cohorts—cohort one was treated with 0.5 mpk of Compound A twice a day (BID), cohort two was treated with 1 mpk of Compound A once a day (QD), cohort three was treated with 1 mpk of Compound A twice a day, and cohort 4 was treated with 2 mpk of Compound A once a day. UM CDX model MP-46 was divided into six cohorts —cohort one was treated with 0.5 mpk of Compound A twice a day (BID), cohort two was treated with 1 mpk of Compound A once a day (QD), cohort three was treated with 0.75 mpk of Compound A twice a day, cohort 4 was treated with 1.5 mpk of Compound A once a day, cohort five was treated with 1.5 mpk of Compound A twice a day, and cohort six was treated with 3 mpk of Compound A twice a day. All treatments ended at 5 days, and animals were sacrificed. GEP Class 1 (green) comprises 8 genes that are high in Class 1 (low risk), and GEP Class 2 (blue) comprises 4 genes that are high in Class 2 (higher risk). PRAME (grey) positivity is associated with poor prognosis in several malignancies, including UM."}, "[2]": {"test_system": "MP-41 CDX tumor", "assay": "Immunohistochemistry of MP-41 CDX tumor slices", "procedure": "Representative MP-41 CDX tumor slices were analyzed after 5 days of treatment with 2 mpk of Compound A (OnTx) or a Vehicle (Veh), administered daily (FIGS. 7A and 7B)."}, "[3]": {"test_system": "uveal melanoma (UM) CDX models 92-1, MP-41, and MP-46", "assay": "Differential gene expression by RNA-seq, MITF/SOX10 pathway (Example 3)", "conditions": "92.1 and MP-46: 1.5 mpk QD, 6 days; MP-41: 2 mpk daily, 4 days; RNA-seq (FIG. 5)", "procedure": "Differential gene expression was measured by RNA-seq in three uveal melanoma (UM) CDX models: 92-1, MP-41, and MP-46 (FIG. 5 and FIG. 6). UM CDX models 92.1 and MP-46 were treated with 1.5 mpk of Compound A, daily (QD), for 6 days, and then animals were sacrificed (FIG. 5). UM CDX model MP-41 was treated with 2 mpk of Compound A, daily, for 4 days, and then animals were sacrificed (FIG. 5). Expression of SOX10, MITF (PD markers) and their downstream targets: melanin pathway markers MLANA, PMEL, and TYR were analyzed. Cyclin D1 is a cell proliferation marker, and BRM and BRG1 were analyzed for candidate selection."}, "[4]": {"test_system": "uveal melanoma (UM) CDX model MP-41", "assay": "Differential gene expression by RNA-seq in UM CDX model MP-41 (Example 2)", "conditions": "MP-41 CDX; 0.5-2 mpk QD or BID; 4 or 5 days; RNA-seq (FIG. 4)", "procedure": "Differential gene expression was measured by RNA-seq in uveal melanoma (UM) CDX model: MP-41 (FIG. 4). This CDX model is a BAP1 intact but aggressive uveal melanoma model. UM CDX model MP-41 was divided into four cohorts—cohort one was treated with 0.5 mpk of Compound A twice a day (BID), cohort two was treated with 1 mpk of Compound A once a day (QD), cohort three was treated with 1 mpk of Compound A twice a day, and cohort 4 was treated with 2 mpk of Compound A once a day. All treatments ended at 4 or 5 days, and animals were sacrificed."}, "[5]": {"conditions": "MP-41 xenograft studies (FIGS. 7A and 7B)"}},
  "data": [
    {"smiles": "COC[C@@H](NC(=O)c1ccn(S(C)(=O)=O)c1)C(=O)Nc1nc(-c2cccc(N3C[C@@H](C)O[C@@H](C)C3)n2)cs1", "note": "(stereo in doubt) [Compound A, N-(1-((4-(6-(2,6-dimethylmorpholino)pyridin-2-yl)thiazol-2-yl)amino)-3-methoxy-1-oxopropan-2-yl)-1-(methylsulfonyl)-1H-pyrrole-3-carboxamide]", "values": [
      {"measurement": "DecisionDx-UM Gene Expression Profile (GEP)", "setting": "[1]", "value": "positive shift"},
      {"measurement": "PRAME expression", "setting": "[1]", "value": "decrease"},
      {"measurement": "higher risk profile Class 2 genes expression", "setting": "[1]", "value": "decrease"},
      {"measurement": "proliferation marker Cyclin D1 (IHC)", "setting": "[2]; MP-41 CDX, 2 mpk daily, 5 days (FIGS. 7A and 7B)", "value": "decreases with treatment"},
      {"measurement": "melanin pathway markers downstream of MITF/SOX10 signaling (IHC)", "setting": "[2]; [5]", "value": "Decrease"},
      {"measurement": "proliferation markers (IHC)", "setting": "[2]; [5]", "value": "Decrease"},
      {"measurement": "MITF expression", "setting": "[3]", "value": "sustained downregulation"},
      {"measurement": "SOX10 expression", "setting": "[3]", "value": "sustained downregulation"},
      {"measurement": "melanoma-specific downstream targets of MITF and SOX10, expression", "setting": "[3]", "value": "sustained downregulation"},
      {"measurement": "BAP1 expression", "setting": "[4]", "value": "subtle upregulation"},
      {"measurement": "GDF15 expression", "setting": "[4]", "value": "dose-dependent downregulation"},
      {"measurement": "PROS1 expression", "setting": "[4]", "value": "dose-dependent downregulation"}
    ]}
  ]
}
